Like-named read-outs stand apart in the source and are kept apart here.
Columns and labels:
[1] = test system: primary human colon epithelial cell monolayer; test: Primary epithelial cell monolayer barrier integrity assay (IFN-γ, FITC-dextran); details: for restoration of barrier integrity in the presence of IFN-γ: metabolites, starting at a concentration of about 5 mM
Experimental: The assays were performed using a primary epithelial cell monolayer barrier integrity assay. […] The addition of interferon-gamma (IFN-γ) disrupts the tight junctions of the epithelial monolayer and induces apoptosis of epithelial cells. The leakiness of the membrane can be assessed by adding FITC-dextran to the apical side of the apparatus and measuring how rapidly it can pass to the basolateral compartment. A leaky monolayer will allow FITC-dextran to the basal side of the apparatus more quickly than a monolayer with an intact monolayer.
Briefly, the barrier integrity assay was conducted as follows. […] Colon organoids were harvested and trypsinized into a suspension containing few cell clusters and seeded onto Matrigel coated transwell inserts (Corning) at a density of 100,000 cells per insert in 50% L-WRN medium supplemented with 10 μM Y-27632 (Millipore Sigma). […] These primarily stem cell population was differentiated into colonocytes by switching the culture medium to 5% L-WRN for 48 hours. After 24 hours of differentiation, specific SCFA or 5% bacterial culture supernatant treatments were added to apical interface in 100 μL of 5% L-WRN medium and 5-25 ng/ml INFγ (Peprotech), depending on the experiment, was added in 175 μL of 5% L-WRN medium to the basolateral interface and incubated for 48 hours at 37° C. After the 48 hour incubation, colonic epithelial monolayer permeability was assessed by adding 10 μL of 10 ng/ml FITC-Dextran (4 kDa, Sigma) to the apical interface, the organoids were incubated for 1 hour and then 100 μL of medium was collected from the basolateral compartment of each transwell and transferred to a 96 well plate for fluorescence detection.

[2] = test system: HDAC enzymes (HeLa nuclear extract); test: HDAC inhibition assay of bacterial supernatants (HDAC-Glo I/II, HeLa nuclear extract); assay type: biochemical
[3] = GC-MS of short-, medium- and branched-chain fatty acids in supernatants; details: single strain supernatants
Source text: FIG. 18 provides a table listing bacterial species and the short chain fatty acids (SCFAs), medium chain fatty acids (MCFAs), and branched chain fatty acids (BCFAs) produced by each of the species. […] The limit of detection for each of the fatty acids is provided in the row labeled “Limit of Detection (LOD).” The SCFAs measured included: acetic acid, propanoic acid, and butanoic acid. The MCFAs measured included: pentanoic acid, hexanoic acid, heptanoic acid. The BCFAs measured included: 2-methyl-propanopic acid, 3-methyl-butanoic acid, and 4-methyl-pentaoic acid.
As described supra, certain tryptophan (Trp) metabolites were associated with remission in patients treated with an HHSP. Accordingly, Applicant tested various bacterial species for the presence of SCFA or tryptophan metabolites in their supernatants. The presence of the tryptophan metabolites was determined using a colorimetric assay for detection of indolic compounds (Indole Reagent, Anaerob Systems). Indole produces a light blue color in this assay, while other Trp metabolites produce purple color. The presence of SCFAs were tested using the HDAC assay (described supra). Supernatants of selected strains that were identified as producers of Trp metabolites by the colorimetric indole assay, and/or producers of SCFAs by the HDAC assay were further analyzed by GC-MS to identify the specific metabolites produced.

[4] = test system: HT29 cells; test: Anti-inflammatory assay in IECs: TNF-α-driven IL-8 secretion by HT29 cells; assay type: cell-based, human; details: metabolites

Molecule: CCCC(=O)O [butyrate]
- decrease of permeability ([1]; 5 mM, positive control): 50%

Molecule: Clostridium disporicum
- HDAC cluster assignment [2]: 0

Molecule: Clostridium glycolicum
- hexanoate production [3]: Hexanoate producing

Molecule: Clostridium tertium
- HDAC cluster assignment [2]: 5

Molecule: Clostridium clostridioforme
- HDAC cluster assignment [2]: 6

Molecule: Clostridium sp 7 2 43FAA
- HDAC cluster assignment ([2]; pattern of HDAC inhibition across nutrient sources): 5
- HDAC Inhibition in any C source (25/18% cutoff) ([2]; supernatants of strains grown in PY medium with one of seven C sources at 0.5%): 1 (If a strain exhibits HDACi activity of at least 0.25 in any nutrient, or 0.18 in fucose, it is considered to have HDACi activity and it is marked with “1”)

Molecule: CC(=O)O [acetate]
- TNF-α-dependent IL-8 secretion [4]: reduced levels of TNF-α-dependent IL-8 secretion

Molecule: O=C(O)CCc1c[nH]c2ccccc12 [3-indolepropionic acid]
- restoration of barrier integrity in the presence of IFN-γ [1]: restored barrier integrity

Molecule: Parabacteroides distasonis
- HDAC cluster assignment [2]: 3

Molecule: Clostridium mayombei
- HDAC cluster assignment [2]: 2

Molecule: CCC(=O)O [propionate]
- TNF-α-dependent IL-8 secretion [4]: reduced levels of TNF-α-dependent IL-8 secretion
- restoration of barrier integrity in the presence of IFN-γ [1]: restored barrier integrity
